Results: patent US7799794B2, “Treatment for cardiovascular disease” (Merck Sharp & Dohme Corp., priority 2000, dated 2010)
Marks after values point to notes of the source that are not given here.

Assays:
Sprague-Dawley rats [1] = test: Renal findings at 7 weeks: immunohistochemistry and BUN (Example 2); assay type: in vivo, rat; conditions: low NaCl diet
Procedure: Rats were placed on a low sodium diet (NaCl, 0.125%) with or without 2% oxonic acid for 7 weeks. A third group were administered allopurinol in the drinking water (150 mg/L) with weekly adjustments of the dose depending on the uric acid level.
Am J Clin Pathol 1957; 28:152.]. Serum blood urea nitrogen was measured by a standard kit (Sigma, St Louis, Mo.).
Renal biopsies were fixed in Methyl-Carnoy's, 10% formalin or 100% ethanol and embedded in paraffin. The presence of uric acid crystals was evaluated by staining 4-μm ethanol-fixed sections with de Galantha and modified Von Kossa stains. Kidney tissue from rats with acute uric acid nephropathy, induced with oxonic acid and uric acid administration was used as a positive control [Stavric, B., Johnson, W. J., and Grice, H. C., Uric acid nephropathy: An experimental model, Proc. Soc. Exp. Biol. Med. 130: 512-16 (1969).]. Light microscopy was performed in 4-μm sections of Methyl-Carnoy's fixed tissue stained with periodic acid Schiff (PAS) reagent or with hematoxylin and eosin.
Methyl-Carnoy's fixed tissue sections were analyzed by indirect immunoperoxidase [Lombardi, D., Gordon , K. L., Polinsky, P., Suga, S., Schwartz, S. M., and Johnson, R. J. Salt sensitive hypertension develops after transient exposure to angiotensin II. Hypertension 33:1013-1019, 1999] staining with the following primary antibodies: OP199, a goat polyclonal antibody against osteopontin (OPN)(gift of C. Giachelli, Univ of Wash., Seattle); ED-1, a monoclonal antibody to rat monocytes and macrophages (Serotec); goat antihuman type III collagen (Southern Biotechnology Associates Inc, Birminghan Ala.); and anti-renin, a mouse antibody to human renin (Sanofi Recherche, Montpellier, France). Sections were incubated with a secondary antibody followed by horseradish peroxidase-conjugated avidin D (Vector Laboratories, Burlingame, Calif.), diaminobenzidine (Sigma) with or without nickel chloride as a chromogen, and counsterstained with methyl green.
NOS1 was detected on formalin fixed tissue sections with a rabbit anti-rat neuronal nitric oxide synthase (Transduction Laboratories, Lexington, Ky.), followed by a biotinylated secondary antibody, diaminobenzidine with nickel chloride and counterstained with nuclear fast red.
All quantification was performed blinded. The tubular expression of osteopontin (OPN), which is a sensitive marker of tubulointerstitial injury, was calculated as the percent of renal cortex occupied by OPN-positive tubules [Lombardi, D., Gordon, K. L., Polinsky, P., Suga, S., Schwartz, S. M., and Johnson, R. J. Salt sensitive hypertension develops after transient exposure to angiotensin II. Hypertension 33:1013-1019, 1999]. Utilizing computer-assisted image analysis software (Optimas V6.2, Media Cybernetics, Silver Springs, Md.) and digitized images, the percent of area occupied by OPN positive tubules per 4 mm^2 field at a magnification of 50× was measured and the mean percent area calculated for each biopsy. The interstitial deposition of collagen type III was calculated as the % of renal cortex occupied by collagen III, noted by immunostaining, by computer image analysis. The mean number of interstitial macrophages (ED-1+cells) in each biopsy was calculated in a blinded manner by counting the total number of positive interstitial cortical cells in 20 sequentially selected 0.25 mm^2 grids at 200× magnification. Renin expression was quantified by the number of glomeruli with positive staining for juxtaglomerular renin using a minimum of 100 glomeruli in each biopsy as previously described [Eng, E., et al., Renal proliferation and phenotypic changes in rats with two-kidney, one-clip Goldblatt hypertension. Am J Hypertens 7:177-185 (1994)]; this has been shown previously to correlate with intrarenal renin content[Eng, E., et al., Renal proliferation and phenotypic changes in rats with two-kidney, one-clip Goldblatt hypertension. Am J Hypertens 7:177-185 (1994)]. […]

Sprague-Dawley rats [2] = test: Cyclosporine nephropathy with or without oxonic acid: body weight, renal function, uric acid, CSA level (Example 5); conditions: 7 weeks
Procedure: Studies were conducted in 20 adult male Sprague-Dawley rats (Simmonsen Laboratories, Gilroy, Calif., USA) weighing 200 to 250 grams. All rats were fed a low salt diet (0.125% NaCl)(Zeigler Bros, Gardners, Pa.), with water ad libitum. […] In order to induce hyperuricemia, oxonic acid 2% was added to low salt diet. Because rats have uricase, an hepatic enzyme which degrades uric acid to allantoin, the blockade of this enzyme by oxonic acid is necessary.
After 7 weeks, rats were placed in individual metabolic cages for 24-hour urine collection. The following day, rats were anesthetized with xylazine and ketamine, serum was collected for creatinine and uric acid measurements, and both kidneys were obtained for histology evaluation. Biopsies were fixed in 10% formalin, 100% ethanol or Methyl Camoy's.
Serum and urine creatinine were measured by a standard picric acid method (Sigma Diagnostics creatinine kit, St. Louis, Mo.). Serum and urine uric acid were measured by a modified carbonate-phosphotungstate method [Henry, R. J., Sobel, C., and Kim, J., A modified carbonate phosphotungstate method for the determination of uric acid and comparison with the spectophotometric uricase method. Am J Clin Pathol 1957; 28:152.]. Fractional uric acid excretion and creatinine clearance were calculated by standard formulas.
All values are expressed as mean±SD, unless otherwise stated. The differences between groups were compared with unpaired Student's t tests.

O=C(O)c1nc(=O)[nH]c(=O)[nH]1 [oxonic acid]
Renin (Sprague-Dawley rats [1]; control 39.6 ± 2.0): 60.9 ± 1.5 % positive JGA
NOS-1 (Sprague-Dawley rats [1]; control 147.2 ± 12.4): 80.4 ± 4.3 positive cells/100 glomeruli
OPN (Sprague-Dawley rats [1]; mean±SE, control 0.9 ± 0.06): 1.8 ± 0.06 % increase
Type III collagen (Sprague-Dawley rats [1]; mean±SE, control 5.4 ± 0.3): 8.8 ± 1.5 %
BUN (Sprague-Dawley rats [1]; mean±SE, control 14.4 ± 1.2): 23.2 ± 2.3 mg/dL
ED-1 (macrophages) (Sprague-Dawley rats [1]; mean±SE, control 18.3 ± 1.3): 27.2 ± 1.9 cells/mm2
urinary uric acid (Sprague-Dawley rats [2]; 24-hour urine, vehicle 2.19 ± 0.66): 5.06 ± 2.81^a mg/day
Serum Uric Acid (Sprague-Dawley rats [2]; mean±SD, vehicle 1.62 ± 0.31): 4.08 ± 1.22^a mg/dl
Weight (Sprague-Dawley rats [2]; mean±SD, vehicle 422.2 ± 31.2): 421.2 ± 28.8 grams
FE urate (fractional excretion of uric acid) (Sprague-Dawley rats [2]; vehicle 0.12 ± 0.06): 0.11 ± 0.14
Urate/creatinine (urine) (Sprague-Dawley rats [2]; vehicle 0.20 ± 0.08): 0.35 ± 0.27
Serum Creatinine (Sprague-Dawley rats [2]; vehicle 0.94 ± 0.24): 0.88 ± 0.19 mg/dL
Creatnine Clearance (Sprague-Dawley rats [2]; vehicle 1.39 ± 0.73): 1.94 ± 0.73 mL/min
